Laboratory results from patent US6812239B2, “Method of identification of inhibitors of PDE1C and methods of treatment of diabetes” (Albert Einstein College of Medicine of Yeshiva University, priority 1999, dated 2004).
pIC50: −log10 of the molar value. Several values for one entry are separate records, joined by “and”; a condition that tells them apart may be missing. Equal values may be shown once. Entries after “also recorded” stand apart in the source; their conditions may differ.

Key:
[1] = tested on: soluble PDE activities of βTC3 cells; assay: Overall PDE activity in inhibitor-treated βTC3 cells; type: cell-based; details: Mus musculus
Text: An estimate for the ability of the inhibitors to permeate and inhibit PDEs within cells was provided by measurements of overall PDE activity in inhibitor-treated cells. These measurements provide an underestimate of the in vivo effects of the inhibitors due to inhibitor dilution, degradation, and release of inhibitor bound to PDEs, that occur during extraction, and are more pronounced in particulate fractions.

βTC3 cells = assay: Insulin release from βTC3 cells by radioimmunoassay; type: cell-based, Mus musculus; details: 16.7 mM glucose; for Effect on glucose induced insulin secretion (in words): 2 hr incubation; for Insulin secretion, % of the cellular insulin content / Insulin secretion, % of the insulin content of the cells: 2 hr
Experimental: The cultured cells are starved for glucose in Hepes buffered Krebs-Ringer solution for 1 hr. Subsequently, 16.7 mM glucose and the potential phosphodiesterase inhibitors are added to the cells in Hepes buffered Krebs-Ringer solution and the cells are incubated for 2 additional hr. Each condition is assayed in triplicate. Insulin content of the supernatant after centrifugation, and of the cells after acid extraction, is determined by a radioimmunoassay. Control samples are treated with no potential inhibitor compound or, for control or calibration purposes, with compounds that will inhibit other PDE isozymes but that are known to lack PDE1C inhibitory activity or, for examining glucose-independent effects of potential inhibitor compound alone.
Cell Culture, treatments and measurements of insulin secretion. βTC3 cells were cultured as described and early passages were maintained (D'Ambra, R., Surana, M., Efrat, S., Starr, R. G., and Fleischer, N. (1990) Endocrinology 126, 2815-2822). For measurements of insulin secretion cells were plated onto a 12-well culture dishes 3-4 days, and refed 16 hr, prior to the assay. On the experiment day, cells were washed in Hepes-buffered Krebs-Ringer solution, and incubated in this glucose-free solution for 1 hr. Subsequently, 16.7 mM glucose and, when relevant, PDE inhibitors were added to the cells in Hepes-buffered Krebs-Ringer solution and the cells were incubated for 2 additional hr. Each condition was assayed in triplicates. Insulin content of the supernatant after centrifugation, and of the cells after acid extraction, was determined by a radioimmunoassay as described (D'Ambra, R., Surana, M., Efrat, S., Starr, R. G., and Fleischer, N. (1990) Endocrinology 126, 2815-2822).
Cyclic nucleotide phosphodiesterase inhibitors that augment insulin secretion were identified using used βTC3 insulinoma cells. For measurements of insulin secretion cells were plated onto a 12-well culture dishes 3-4 days, and refed 16 hr, prior to the assay. On the experiment day, cells were washed in Hepes-buffered Krebs-Ringer solution, and incubated in this glucose-free solution for 1 hour. Subsequently, 16.7 mM glucose and, when relevant, phosphodiesterase inhibitors were added to the cells in Hepes-buffered Krebs-Ringer solution and the cells were incubated for 2 additional hours. Each condition was assayed in triplicates. Insulin content of the supernatant after centrifugation, and of the cells after acid extraction, was determined by a radioimmunoassay.

[2] = tested on: cGMP PDE activities of peak I (PDE1C and cGMP-specific PDE); assay: cGMP PDE activity of mono-Q FPLC peak I of βTC3 cells; type: biochemical, Mus musculus; details: 50 μM 8 MM-IBMX
Experimental: (§1) Mono-Q-FPLC fractionation of PDE activities. Cells were scraped and homogenized in a buffer containing 50 mM Tris 7.5, 250 mM sucrose, 5 mM MgCl2, 0.2 μg/ml aprotinin, leupeptin and pepstatin, and 1 mM 4-(2-aminoethyl)benzenesulfonyl fluoride. Following a 30 min 150,000 g centrifugation, the supernatant was loaded onto a Pharmacia Mono-Q anion exchange column and PDE activities were fractionated by FPLC along a two step salt gradient. Column buffers were (A) 50 mM Tris 7.5 and (B) 50 mM Tris 7.5, 0.5 M NaCl. The gradient consisted of a 10 min increase to 0.2 M NaCl (20% B), and a 90 min increase to 0.5 M NaCl (100% B). One ml fractions were collected.
(§2) PDE assays and kinetic measurements. PDE assays were performed in duplicate as described (40). Analysis and plotting of kinetic data was performed by using the computer program kaleidagraph. The contributions of the high and low affinities cGMP PDEs of peak I to total PDE activity of this peak at a given substrate concentration were calculated using the formula: […]

PDE1C of βTC3 cells = PDE1C of βTC3 cells (Mus musculus, UniProt Q64338); assay: cAMP PDE activity of mono-Q FPLC peak I (PDE1C) of βTC3 cells; type: biochemical; details: for pIC50: 1 μM cAMP substrate, average ± standard deviation, read-out: IC50 values Peak I PDE1
Experimental: as §1, §2

involved PDE families = details: cited from earlier work
PDE3 = details: Beavo 1988; read-out: IC50 for inhibition of PDE3; cited from earlier work
Peak III PDE4 = assay: cAMP PDE activity of mono-Q FPLC peak III of βTC3 cells; type: biochemical, Mus musculus; details: 2.5 μM rolipram, substrate cAMP 1 μM
Experimental: as §1, §2

[3] = tested on: glucose induced insulin secretion; details: Parker et al. 1995; cited from earlier work
PDE1C = details: unlike PDE1A and 1B; cited from earlier work

Chain of PDE1C of βTC3 cells (Q64338 151-528 limits assumed): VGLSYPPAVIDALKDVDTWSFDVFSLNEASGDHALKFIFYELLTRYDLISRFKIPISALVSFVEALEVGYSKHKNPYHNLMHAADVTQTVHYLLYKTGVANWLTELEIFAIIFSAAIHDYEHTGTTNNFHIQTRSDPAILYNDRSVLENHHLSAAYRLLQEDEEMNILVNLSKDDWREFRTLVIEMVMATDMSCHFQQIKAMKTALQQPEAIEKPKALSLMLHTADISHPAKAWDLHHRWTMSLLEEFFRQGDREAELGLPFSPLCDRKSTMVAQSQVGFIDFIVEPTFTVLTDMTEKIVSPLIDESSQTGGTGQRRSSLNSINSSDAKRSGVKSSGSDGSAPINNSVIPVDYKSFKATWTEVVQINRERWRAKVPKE

In the case of `COCc1nc2c([nH]1)c(=O)n(C)c(=O)n2CC(C)C` [8 MM-IBMX, 8-methoxymethyl-1-methyl-3-(2-methylpropyl)xanthine], the inhibition at 500 µM ([1]; inhibitor applied to cells at 0.5 mM, read-out: Inhibition of soluble cGMP PDE activities in inhibitor-treated cells) was 30%, the “Effect on glucose induced insulin secretion (in words)” value (“Effect” for short) (βTC3 cells) was “strongly augmented insulin secretion; also recorded: dose dependent augmentation of insulin secretion” and the “Effect” value (βTC3 cells; listed as 8-methoxymethyl-isobutylmethylxanthine) was “dose dependent augmentation of insulin secretion”. For the same compound, the “Insulin secretion, % of the cellular insulin content” value (βTC3 cells; inhibitor 0.5 mM) was 17.2%, the “Insulin secretion, % of the insulin content of the cells” value (βTC3 cells; inhibitor […]) was 9.3% and the “Inhibition by 8 MM-IBMX, peak I” value ([2]; substrate cGMP 0.1 μM) was 82%. For the same compound, the “Inhibition by 8 MM-IBMX, peak I” value ([2]; substrate cGMP 10 μM) was 57%, the pIC50 (PDE1C of βTC3 cells) was 5.12 and the inhibition at 50 µM (PDE1C of βTC3 cells; 50 μM 8 MM-IBMX, substrate cAMP 0.5 μM) was 80%.
For `CC(C)Cn1c(=O)n(C)c(=O)c2[nH]cnc21` [IBMX, 1-methyl-3-isobutylxanthine], the “Insulin secretion, % of the cellular insulin content” value (βTC3 cells; inhibitor 0.5 mM) is given as 8% and 18%, the “Insulin secretion, % of the cellular insulin content” value (βTC3 cells; inhibitor 0.5 mM, listed as isobutylmethylxanthine) is given as 15.2% and the “IC50 values for the involved PDE families” value (involved PDE families) is given as “low μM range”.
In the case of `Cc1[nH]c(=O)c(C#N)cc1-c1ccncc1` [Milrinone, 1,6-dihydro-2-methyl-6-oxo-(3,4′-bipyridine)-5-carbonitrile], the “Effect” value (βTC3 cells) is given as “did not affect insulin secretion”, the pIC50 (PDE1C of βTC3 cells) is given as less than 4.00 and the pIC50 (PDE3) is given as 6.52.
With `CCCCOc1cc(CC2CNC(=O)N2)ccc1OC` (stereo not shown) [RO20-1724, 4-(3-butoxy-4-methoxybenzyl)-2-imidazolidinone] the “Effect” value (βTC3 cells) was “limited effect; also recorded: did not” and the “Insulin secretion, % of the cellular insulin content” value (βTC3 cells; inhibitor 0.2 mM) was 9.6%.
In the case of `COc1ccc(C2CNC(=O)C2)cc1OC1CCCC1` (stereo not shown) [Rolipram, 4-[3-(cyclopentyloxy)-4-methoxyphenyl]-2-pyrrolidinone], the inhibition at 15 µM ([1]; inhibitor applied to cells at 15 μM, read-out: Inhibition of soluble cAMP PDE activities in inhibitor-treated cells) was 37%, the “Insulin secretion, % of the insulin content of the cells” value (βTC3 cells; over 10^4 fold increase in concentrations, up to 15 μM) was 7.9-10.7% and the “Inhibition by Rolipram, peak III” value (Peak III PDE4) was 97%. The “Inhibition by Rolipram, peak III” value (Peak III PDE4; listed as rolipram) was “abolished” and the pIC50 (PDE1C of βTC3 cells) was less than 4.00.
In the case of `CCOC(=O)C1=C[C@]2(CC)CCCN3CCc4c(n1c1ccccc41)[C@@H]32` [Vinpocetine, eburnamenine-14-carboxylic acid ethyl ester], the “Stimulation of glucose induced insulin secretion (in words)” value [3] is listed as “ineffective simulator of glucose induced insulin secretion”, the “Sensitivity of PDE1C to inhibitor (in words)” value (PDE1C) is listed as “resistant” and the pIC50 (PDE1C of βTC3 cells) is listed as less than 4.00.
In the case of `CCCOc1ccccc1-c1nc2nn[nH]c2c(=O)[nH]1` [Zaprinast, zaprinast], the “Effect” value (βTC3 cells) is given as “enhanced glucose induced secretion; also recorded: partial stimulatory effects”, the “Insulin secretion, % of the cellular insulin content” value (βTC3 cells; inhibitor 0.5 mM) is given as 6.2% and the “Sensitivity of PDE1C to inhibitor (in words)” value (PDE1C) is given as “sensitive”. The pIC50 (PDE1C of βTC3 cells) was 5.35.
In the case of `COc1cc2c(cc1OC)-c1c/c(=N\c3c(C)cc(C)cc3C)n(C)c(=O)n1CC2` [trequinsin], the “Effect” value (βTC3 cells) was “no effect; also recorded: did not” and the “Insulin secretion, % of the cellular insulin content” value (βTC3 cells; inhibitor 30 nM) was 7%.
